Data as given in PubChem BioAssay (NCI).
Values joined by “and” are separate entries in the source; they are usually repeats but may differ in a detail not shown here. Equal values may be shown once.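 96-well plates; 48 h exposure; 5 concentrations. Endpoints by linear interpolation between flanking doses. Not reached: highest tested concentration assigned. GI50 is the concentration that inhibits growth by half. TGI is the concentration that stops growth completely.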

Key:
Experiment in all cases: NCI tumour cell line growth inhibition, 48 h
DMS 114 small cell lung = system: DMS 114 small cell lung
DMS 273 small cell lung = system: DMS 273 small cell lung
HOP-18 NSCLC = system: HOP-18 NSCLC
KM20L2 colon = system: KM20L2 colon
M19-MEL melanoma = system: M19-MEL melanoma
RXF-631 renal = system: RXF-631 renal
XF 498 CNS = system: XF 498 CNS
SNB-78 CNS = system: SNB-78 CNS
MDA-N = system: MDA-N
P388 leukemia = system: P388 leukemia
SN12K1 renal = system: SN12K1 renal

Row | SMILES | TGI (DMS 114 small cell lung) [µM] | TGI (DMS 273 small cell lung) [µM] | TGI (HOP-18 NSCLC) [µM] | TGI (KM20L2 colon) [µM] | TGI (M19-MEL melanoma) [µM] | TGI (XF 498 CNS) [µM] | TGI (SNB-78 CNS) [µM] | TGI (MDA-N) | also measured
1 | COc1cc(CNc2nc3c(N)cc(C(F)(F)F)cc3nc2-c2ccccc2)cc(OC)c1OC | > 100 | > 100 | > 100 | > 100 | > 100 | 86.2 |  |  | GI50 (HOP-18 NSCLC): > 100000 nM; TGI (RXF-631 renal): > 100 µM
2 | CC(C)C1CO[C@]2(C)CCC(=O)N12 (stereo partly drawn) | > 100 |  | > 100 | > 100 | > 100 | > 100 |  |  | TGI (RXF-631 renal): > 100 µM
3 | Cc1cc2c(c(C(N)=O)c1C)-c1cccc(F)c1C2=O | > 100 | > 100 |  | > 100 | > 100 | > 100 | > 100 |  | 
4 | O=c1cc(-c2ccccn2)[nH]c2cccc(F)c12 | > 100 |  | > 100 | > 100 | > 100 |  | > 100 |  | TGI (RXF-631 renal): > 100 µM
5 | O=c1cccccc1[O-].O=c1cccccc1[O-].O=c1cccccc1[O-].[Eu+3] |  | > 100 |  | > 100 |  |  | > 100 |  | GI50 (DMS 273 small cell lung): 16900 nM; GI50 (KM20L2 colon): 27200 nM; GI50 (SNB-78 CNS): 20100 nM
6 | Cc1c(C(=O)C/C(=N/NC(=O)c2ccccc2)C(=O)Nc2ccc(Cl)cc2)[n+](=O)c2ccccc2n1[O-] | > 100 | > 100 | > 100 |  |  | > 100 | > 100 |  | TGI (RXF-631 renal): > 100 µM
7 | CCCn1c(SCCSc2c3ccccc3c(-c3nc(F)nc(F)n3)n2CCC)c2ccccc2c1-c1nc(F)nc(F)n1 |  | > 100 | > 100 | > 100 |  |  | > 100 |  | 
8 | CCC[CH2][Sn]([CH2]CCC)([O]C(=O)c1cc(OC)c(OC)cc1OC)[O][Sn]([CH2]CCC)([CH2]CCC)[O]C(=O)c1cc(OC)c(OC)cc1OC | 1.26 | 1.76 | 3.16 | 2.56 | 1.7 | 0.508 | 1.51 |  | GI50 (DMS 114 small cell lung): 314 nM; GI50 (DMS 273 small cell lung): 762 nM; GI50 (HOP-18 NSCLC): 1780 nM; GI50 (KM20L2 colon): 1210 nM; GI50 (M19-MEL melanoma): 347 nM; GI50 (RXF-631 renal): 158 nM; TGI (RXF-631 renal): 0.365 µM; GI50 (SNB-78 CNS): 402 nM; GI50 (XF 498 CNS): 196 nM
9 | C[N+]1=c2c3cccc4cccc(c(=O)n2CC1)c43 | 29.2 | 28.8 | 54.1 | 43.3 | 31.6 |  | 54.7 |  | TGI (RXF-631 renal): > 100 µM
10 | N#C/C(=C1\SCC(=O)N1c1ccccc1)c1nc2ccccc2[nH]1 | > 100 | > 100 |  | > 100 | > 100 | > 100 | > 100 |  | 
11 | O=C1C2C(C(=O)N1c1ccccc1)C1c3ccccc3C2C2C(=O)N(c3ccccc3)C(=O)C21 (stereo not drawn) | 27 | 53.2 | > 100 | 42.8 | > 100 |  |  |  | 
12 | O=C(/C=C(\O)C(=O)O)/C=C(\O)c1ccccc1 | > 100 | > 100 | > 100 | > 100 | > 100 | > 100 | > 100 |  | GI50 (DMS 114 small cell lung): > 100000 nM; GI50 (DMS 273 small cell lung): > 1000 nM; GI50 (KM20L2 colon): > 1000 nM; GI50 (M19-MEL melanoma): > 1000 nM; GI50 (SNB-78 CNS): > 1000 nM; GI50 (XF 498 CNS): > 1000 nM
13 | CCOC(=O)NC(=O)c1cn(CCN2CCN(C(=O)CNC(=O)CNC(=O)Cn3cc(C(=O)NC(=O)OCC)c(=O)[nH]c3=O)CC2)c(=O)[nH]c1=O | > 100 | > 100 | > 100 | > 100 | > 100 | > 100 | > 100 |  | 
14 | CC(C)/C=C1\CCC(CN2CCOCC2)C1=O (stereo not drawn) |  |  | 31.8 | 38.2 | > 57.2 | 33.4 | 37.4 |  | 
15 | COc1cc(/C=C/c2ccc(C)cc2)cc(OC)c1OC | > 100 | 17.6 | > 100 | 4.69 | > 88.9 | 13.9 | 9.81 | 2.89 µM | 
16 | C/C(CC(=O)Nc1cccc(Cl)c1C)=N\NC(N)=S |  |  |  | > 100 | > 100 | > 100 | > 100 |  | TGI (RXF-631 renal): > 100 µM
17 | COC1C(OC(=O)c2ccc(C)[nH]2)C(O)C(Oc2ccc3c(O)c(NC(=O)c4c[nH]c(C(=O)Nc5c(O)c6ccc(OC7OC(C)(C)C(OC)C(OC(=O)c8ccc(C)[nH]8)C7O)c(C)c6oc5=O)c4C)c(=O)oc3c2C)OC1(C)C (stereo not drawn) | 6.75 | 12.2 | 3.37 | 15.6 |  |  | 7.37 |  | 
18 | COC(C)(C)[C@@H](O)[C@H](O)C[C@H](C)C1=C2CC[C@@H]3[C@@]4(C)CC[C@@H](OC(C)=O)C(C)(C)[C@@H]4C[C@@H](OC4OC(COC(C)=O)C(O)C(O)C4O)[C@@]3(C)[C@]2(C)CC1 (stereo partly drawn) |  |  |  |  |  |  |  | 24.6 µM | GI50 (MDA-N): 11.8 µM
19 | O=[N+]([O-])c1cccc(/C=N/NC2=CS(=O)(=O)C=C2)c1 |  |  |  |  |  |  |  | > 100 µM | 

Row | SMILES | TGI (DMS 114 small cell lung) [µM] | TGI (DMS 273 small cell lung) [µM] | TGI (HOP-18 NSCLC) [µM] | TGI (KM20L2 colon) [µM] | TGI (M19-MEL melanoma) [µM] | TGI (XF 498 CNS) [µM] | TGI (SNB-78 CNS) [µM] | TGI (MDA-N) | also measured
20 | C#CC1(O)CCC2C3CCc4cc(Oc5nc(F)nc(-c6c7ccccc7c7n6CCS7)n5)ccc4C3CC[C@@]21C (stereo partly drawn) | 44.7 | 87.8 |  | > 100 | > 100 | > 100 |  |  | 
21 | [N-]=[N+]=NC(c1cn(C2CC(O)C(CO)O2)c(=O)[nH]c1=O)C(Cl)Br (stereo not drawn) | > 100 | > 100 | > 100 | > 100 | > 100 |  | > 100 |  | 
22 | COc1ccc(-c2c(C)c(C(=O)O)nc(-c3ccc4c(O)c(OC)c5c(c4n3)=NC(C)(C)N=5)c2N)c(O)c1OC |  |  |  |  |  |  |  | 39.9 µM | 
23 | CN(C)Cc1ccc(-c2cc3onc(-c4ccccc4)c3c(=O)n2C)cc1 |  |  |  |  |  |  |  | 44.5 µM | 
24 | COc1cc2c(cc1OC)C(C(=O)O)C(c1ccccc1)N(C)C2=O (stereo not drawn) | > 100 |  | > 100 | > 100 | > 100 | > 100 | > 100 |  | 
25 | C=CCn1c(=S)sc2c(C(=O)OCC)c3c(C)cc(C)cn3c2c1=O |  | > 100 |  | > 100 | > 100 |  | > 100 |  | 
26 | C[C@H]1[C@H](C)N1CC(O)Cn1ccnc1[N+](=O)[O-] (stereo partly drawn) |  |  |  |  |  |  |  | > 100 µM | 
27 | C/C(CC(=O)NCCc1ccccc1)=N\NS(=O)(=O)c1ccc(C)cc1 | > 100 | > 100 |  | > 100 | > 100 | > 100 | > 100 |  | TGI (RXF-631 renal): > 100 µM
28 | CCO/C=C1\N=C(c2ccc(Cl)c(Cl)c2)OC1=O | > 100 | > 100 |  | > 100 | > 100 | > 100 | > 100 |  | 
29 | ClC(Cl)=C(Cl)C1(Cl)CC1COCc1ccccc1 (stereo not drawn) | 59.6 | > 100 |  | > 100 | 73.6 | 73.6 | 60.6 |  | 
30 | O=S(=O)(NC1CCCCC1)c1ccc2c(c1)OCCOCCOCCOCCO2 |  |  |  |  |  |  |  | > 100 µM | 
31 | COC(=O)CCC(NC(=S)N/N=C(\C)c1ccc[nH]1)C(=O)OC (stereo not drawn) | > 100 | > 100 | > 100 | > 100 | > 100 | > 100 | > 100 |  | 
32 | O=S(=O)(O)O |  | 540 | 1680 | 2280 |  |  | 2930 | 360 µM | TGI (P388 leukemia): > 1.82 mM; TGI (SN12K1 renal): 1.38 mM
33 | O=[N+]([O-])/C=C/c1c(Cl)cccc1Cl |  |  |  |  |  |  |  | 6.85 µM | 
34 | OC1(c2ccccc2)C2CC=CC2C1(c1ccccc1)c1ccccc1 (stereo not drawn) |  |  |  |  |  |  |  | > 100 µM | 
35 | O=C1NC(N/N=C\C(O)C(O)C(O)C(O)CO)=N/C1=C/c1ccccc1 (stereo not drawn) |  |  |  |  |  |  |  | > 100 µM and 31.6 µM | GI50 (MDA-N): 89 µM and 15.7 µM and > 100 µM
36 | CN1C(=O)c2ccc3ccccc3c2C1=O |  |  |  |  |  |  |  | > 100 µM | 
37 | C=CC(=O)N1C/C(=C\c2ccc(Cl)c(Cl)c2)C(=O)/C(=C/c2ccc(Cl)c(Cl)c2)C1 | 0.309 | 0.315 | 1.38 | 0.545 | 0.4 |  | 0.838 |  | TGI (RXF-631 renal): 1.89 µM
38 | O=c1c2c([nH]c3nccn13)CCC2 |  |  |  |  |  |  |  | > 10 µM | 
